Assay results published in patent US9695155B2, “Herbicidal substituted pyrimidinyloxy benzene compounds” (E. I. DU PONT DE NEMOURS AND COMPANY, priority 2013, dated 2017).

Assays:
[1] = system: speedwell; assay: Test D preemergence; type: in vivo, Veronica persica
Summary of the method: (§1)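 In a controlled growth environment, treated and control plants were held 7 to 21 days, then compared visually. Damage was scored 0–100, where 100 means complete control. Sprays contained surfactant in a non-phytotoxic solvent; post-applied plants were at the 1- to 4-leaf stage.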

[2] = system: spring wheat; assay: Test D postemergence; type: in vivo, Triticum aestivum
Text: (§2) Seeds of plant species selected from bluegrass (annual bluegrass, Poa annua), blackgrass (Alopecurus myosuroides), canarygrass (littleseed canarygrass, Phalaris minor), chickweed (common chickweed, Stellaria media), galium (catchweed bedstraw, Galium aparine), bromegrass, downy (downy bromegrass, Bromus tectorum), field poppy (Papaver rhoeas), field violet (Viola arvensis), green foxtail (Setaria viridis), deadnettle (henbit deadnettle, Lamium amplexicaule), Italian ryegrass (Lolium multiflorum), kochia (Kochia scoparia), lambsquarters (Chenopodium album), oilseed rape (Brassica napus), pigweed (Amaranthus retroflexus), chamomile (scentless chamomile, Matricaria inodora), Russian thistle (Salsola kali), speedwell (bird's-eye speedwell, Veronica persica), spring barley (Hordeum vulgare), spring wheat (Triticum aestivum), wild buckwheat (Polygonum convolvulus), wild mustard (Sinapis arvensis), wild oat (Avena fatua), wild radish (Raphanus raphanistrum), windgrass (Apera spica-venti), winter barley (Hordeum vulgare), and winter wheat (Triticum aestivum) were planted into a silt loam soil and treated preemergence with test chemicals formulated in a non-phytotoxic solvent mixture which included a surfactant.
(§3) At the same time, these species were planted in pots containing Redi-Earth® planting medium (Scotts Company, 14111 Scottslawn Road, Marysville, Ohio 43041) comprising spaghnum peat moss, vermiculite, wetting agent and starter nutrients and treated with postemergence applications of the test chemicals formulated in the same manner. Plants ranged in height from 2 to 18 cm (1- to 4-leaf stage). Treated plants and controls were maintained in a controlled growth environment for 7 to 21 days after which time all species were compared to controls and visually evaluated. Plant response ratings, summarized in Table D, are based on a scale of 0 to 100 where 0 is no effect and 100 is complete control. A dash (-) response means no test result.

[3] = system: winter wheat; assay: Test D postemergence; type: in vivo, Triticum aestivum
Text: as §2, §3

[4] = system: canarygrass; assay: Test D preemergence; type: in vivo, Phalaris minor
Text: as §2, §3

[5] = system: wild radish; assay: Test D preemergence; type: in vivo, Raphanus raphanistrum
Summary of the method: as §1

[6] = system: green foxtail; assay: Test D postemergence; type: in vivo, Setaria viridis
Summary of the method: as §1

[7] = system: green foxtail; assay: Test D preemergence; type: in vivo, Setaria viridis
Summary of the method: as §1

[8] = system: deadnettle; assay: Test D preemergence; type: in vivo, Lamium amplexicaule
Text: as §2, §3

[9] = system: wild oat; assay: Test D postemergence; type: in vivo, Avena fatua
Summary of the method: as §1

[10] = system: bluegrass; assay: Test D postemergence; type: in vivo, Poa annua
Text: as §2, §3

[11] = 16 g ai/ha, scale 0 (no effect) to 100 (complete control)
[12] = 31 g ai/ha, scale 0 (no effect) to 100 (complete control)
[13] = 31 g ai/ha, scale 0 to 100 (0 no effect, 100 complete control)
[14] = 62 g ai/ha, scale 0 to 100 (0 no effect, 100 complete control)
[15] = 125 g ai/ha, scale 0 to 100 (0 no effect, 100 complete control)

FCc1cccc(Oc2ncc(Cl)cn2)c1-n1cc(I)cn1 [Compound 245]
Plant response rating, Speedwell [1, 11]: 5
Plant response rating, Speedwell [1, 12]: 100
Plant response rating, Speedwell ([1]; 125 g ai/ha, scale 0-100): 100
Plant response rating, Wheat, Spring ([2]; 16 g ai/ha, scale 0-100): 10
Plant response rating, Wheat, Spring [2, 13]: 10
Plant response rating, Wheat, Spring [2, 14]: 10
Plant response rating, Wheat, Spring [2, 15]: 20
Plant response rating, Wheat, Winter ([3]; 16 g ai/ha, scale 0-100): 5
Plant response rating, Wheat, Winter [3, 13]: 10
Plant response rating, Wheat, Winter [3, 14]: 10
Plant response rating, Wheat, Winter [3, 15]: 10
Plant response rating, Canarygrass [4, 11]: 0
Plant response rating, Canarygrass ([4]; 31 g ai/ha, scale 0-100): 0
Plant response rating, Canarygrass ([4]; 62 g ai/ha, scale 0-100): 15
Plant response rating, Canarygrass ([4]; 125 g ai/ha, scale 0-100): 35
Plant response rating, Radish, Wild [5, 11]: 0
Plant response rating, Radish, Wild [5, 12]: 0
Plant response rating, Radish, Wild ([5]; 125 g ai/ha, scale 0-100): 85
Plant response rating, Foxtail, Green ([6]; 16 g ai/ha, scale 0-100): 10
Plant response rating, Foxtail, Green [6, 13]: 20
Plant response rating, Foxtail, Green [6, 14]: 35
Plant response rating, Foxtail, Green [6, 15]: 45
Plant response rating, Foxtail, Green [7, 11]: 0
Plant response rating, Foxtail, Green ([7]; 31 g ai/ha, scale 0-100): 0
Plant response rating, Foxtail, Green ([7]; 62 g ai/ha, scale 0-100): 0
Plant response rating, Foxtail, Green ([7]; 125 g ai/ha, scale 0-100): 35
Plant response rating, Deadnettle [8, 11]: 0
Plant response rating, Deadnettle ([8]; 31 g ai/ha, scale 0-100): 0
Plant response rating, Deadnettle ([8]; 62 g ai/ha, scale 0-100): 0
Plant response rating, Deadnettle ([8]; 125 g ai/ha, scale 0-100): 15
Plant response rating, Oat, Wild ([9]; 16 g ai/ha, scale 0-100): 0
Plant response rating, Oat, Wild [9, 13]: 0
Plant response rating, Oat, Wild [9, 14]: 10
Plant response rating, Oat, Wild [9, 15]: 10
Plant response rating, Bluegrass ([10]; Postemergence, 62 g ai/ha, scale 0 to 100 (0 no effect, 100 complete control)): 15
Plant response rating, Bluegrass ([10]; Postemergence, 31 g ai/ha, scale 0 to 100 (0 no effect, 100 complete control)): 20
Plant response rating, Bluegrass ([10]; Postemergence, 125 g ai/ha, scale 0 to 100 (0 no effect, 100 complete control)): 30
Plant response rating, Bluegrass ([10]; postemergence, 16 g ai/ha, scale 0 to 100, 0 no effect, 100 complete control): 10
